Patent US20240083861A1, “HSD17B13 INHIBITORS AND USES THEREOF” (FL2022-001, Inc., priority 2020, published 2024)

molecular target: T1, Recombinant human HSD17B13 enzyme (Homo sapiens, UniProt Q7Z5P4); assay: HSD17b13 NAD(P)H-Glo biochemical assay; conditions: 50 uM estradiol, 1 mM NAD+, NAD(P)H-Glo luminescence; read-out: HSD17β13 IC50
T1 sequence (Q7Z5P4 20-300): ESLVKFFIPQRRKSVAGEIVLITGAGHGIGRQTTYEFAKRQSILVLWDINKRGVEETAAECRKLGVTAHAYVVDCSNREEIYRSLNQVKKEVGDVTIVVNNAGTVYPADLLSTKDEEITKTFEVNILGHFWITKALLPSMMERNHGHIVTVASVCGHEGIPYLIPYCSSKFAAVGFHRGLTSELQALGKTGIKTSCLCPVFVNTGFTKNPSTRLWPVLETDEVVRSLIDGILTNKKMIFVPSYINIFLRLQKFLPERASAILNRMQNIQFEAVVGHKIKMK
Outline: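 Luminescent NAD(P)H-Glo read-out, taken after 1 hour at RT, measured cofactor reduction. Substrate and cofactor were estradiol at 50 uM and NAD+ at 1 mM final, reacted with the recombinant human enzyme for 3 hours at 37° C in 20 mM Tris pH7.4, 0.002% Tween-20, 0.02% BSA. Compound was pre-incubated with enzyme for 20 minutes at RT.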

Row | IC50 [nM] | Structure (SMILES)
1 | < 100 | Cn1nc(-c2cc(C(F)(F)F)c(F)c(O)c2F)c2cnc(N3CCC(O)CC3)nc21 [Compound 18.04, 1-(3-(2,4-Difluoro-3-hydroxy-5-(trifluoromethyl)phenyl)-1-methyl-1H-pyrazolo[3,4-d]pyrimidin-6-y1)piperidin-4-ol]
2 | < 100 | COC1CCCN(c2ncc3c(-c4cc(C(F)(F)F)c(F)c(O)c4F)nn(C)c3n2)C1 (stereo not shown) [Compound 18.06, 2,6-Difluoro-3-(6-(3-methoxypiperidin-1-yl)-1-methyl-1H-pyrazolo[3,4-d]pyrimidin-3-yl)-5-(trifluoromethyl)phenol]
3 | < 100 | Cn1nc(-c2cc(C(F)(F)F)c(F)c(O)c2F)c2cnc(N3CCC4(CCC(=O)N4)CC3)nc21 [Compound 18.15, 8-(3-(2,4-Difluoro-3-hydroxy-5-(trifluoromethyl)phenyl)-1-methyl-1H-pyrazolo[3,4-d]pyrimidin-6-yl)-1,8-diazaspiro[4.5]decan-2-one]
4 | < 100 | CN1CCN(c2ncc3c(-c4cc(C(F)(F)F)c(F)c(O)c4F)nn(C)c3n2)CC12CC2 [Compound 18.17, 2,6-Difluoro-3-(1-methyl-6-(4-methyl-4,7-diazaspiro[2.5]octan-7-y1)-1H-pyrazolo[3,4-d]pyrimidin-3-y1)-5-(trifluoromethyl)phenol]
5 | < 100 | Cn1nc(-c2cc(C(F)(F)F)c(F)c(O)c2F)c2cnc(N3CCNC4(CC4)C3)nc21 [Compound 18.18, 2,6-Difluoro-3-(1-methyl-6-(4,7-diazaspiro[2.5]octan-7-y1)-1H-pyrazolo[3,4-d]pyrimidin-3-y1)-5-(trifluoromethyl)phenol]
6 | < 100 | Cn1nc(-c2cc(C(F)(F)F)c(F)c(O)c2F)c2cnc(N3CCN(C4CC4)C(=O)C3)nc21 [Compound 18.21, 1-Cyclopropyl-4-(3-(2,4-difluoro-3-hydroxy-5-(trifluoromethyl)phenyl)-1-methyl-1H-pyrazolo[3,4-d]pyrimidin-6-y1)piperazin-2-one]
7 | < 100 | CC(=O)NC1CCN(c2ncc3c(-c4cc(C(F)(F)F)c(F)c(O)c4F)nn(C)c3n2)CC1 [Compound 18.22, N-(1-(3-(2,4-Difluoro-3-hydroxy-5-(trifluoromethyl)phenyl)-1-methyl-1H-pyrazolo[3,4-d]pyrimidin-6-y1)piperidin-4-yl)acetamide]
8 | < 100 | Cn1nc(-c2cc(C(F)(F)F)c(F)c(O)c2F)c2cnc(N3CCC(NS(C)(=O)=O)CC3)nc21 [Compound 18.23, N-(1-(3-(2,4-Difluoro-3-hydroxy-5-(trifluoromethyl)phenyl)-1-methyl-1H-pyrazolo[3,4-d]pyrimidin-6-yl)piperidin-4-yl)methanesulfonamide]
9 | 100 to 1000 | Cn1nc(-c2cc(C(F)(F)F)c(F)c(O)c2F)c2cnc(N3CCC4(CCN4)CC3)nc21 [Compound 18.24, 2,6-Difluoro-3-(1-methyl-6-(1,7-diazaspiro[3.5]nonan-7-yl)-1H-pyrazolo[3,4-d]pyrimidin-3-y1)-5-(trifluoromethyl)phenol]
10 | 100 to 1000 | Cn1nc(-c2cc(C(F)(F)F)c(F)c(O)c2F)c2cnc(N3CCC(C(=O)O)CC3)nc21 [Compound 18.30, 1-(3-(2,4-Difluoro-3-hydroxy-5-(trifluoromethyl)phenyl)-1-methyl-1H-pyrazolo[3,4-d]pyrimidin-6-y1)piperidine-4-carboxylic Acid]

The next lines start with the compound.

Row | Structure (SMILES) | IC50 [nM]
11 | Cn1nc(-c2cc(C(F)(F)F)c(F)c(O)c2F)c2cnc(N3CCCC(O)C3)nc21 (stereo not shown) [Compound 18.05, 1-(3-(2,4-Difluoro-3-hydroxy-5-(trifluoromethyl)phenyl)-1-methyl-1H-pyrazolo[3,4-d]pyrimidin-6-y1)piperidin-3-ol] | < 100
12 | Cn1nc(-c2cc(C(F)(F)F)c(F)c(O)c2F)c2cnc(N3CCOC(C(N)=O)C3)nc21 (stereo not shown) [Compound 18.07, 4-(3-(2,4-Difluoro-3-hydroxy-5-(trifluoromethyl)phenyl)-1-methyl-1H-pyrazolo[3,4-d]pyrimidin-6-yl)morpholine-2-carboxamide] | < 100
13 | CN1CCC2(CCN(c3ncc4c(-c5cc(C(F)(F)F)c(F)c(O)c5F)nn(C)c4n3)CC2)C1=O [Compound 18.08, 8-(3-(2,4-Difluoro-3-hydroxy-5-(trifluoromethyl)phenyl)-1-methyl-1H-pyrazolo[3,4-d]pyrimidin-6-yl)-2-methyl-2,8-diazaspiro[4.5]decan-1-one] | < 100
14 | Cn1nc(-c2cc(C(F)(F)F)c(F)c(O)c2F)c2cnc(N3CCC(C(N)=O)CC3)nc21 [Compound 18.09, 1-(3-(2,4-Difluoro-3-hydroxy-5-(trifluoromethyl)phenyl)-1-methyl-1H-pyrazolo[3,4-d]pyrimidin-6-yl)piperidine-4-carboxamide] | < 100
15 | Cn1nc(-c2cc(C(F)(F)F)c(F)c(O)c2F)c2cnc(N3CCC4(CCNC4=O)CC3)nc21 [Compound 18.10, 8-(3-(2,4-Difluoro-3-hydroxy-5-(trifluoromethyl)phenyl)-1-methyl-1H-pyrazolo[3,4-d]pyrimidin-6-yl)-2,8-diazaspiro[4.5]decan-1-one] | < 100
16 | Cn1nc(-c2cc(C(F)(F)F)c(F)c(O)c2F)c2cnc(N3[C@@H]4CNC[C@H]3COC4)nc21 [Compound 18.11, 3-(6-((1R,5S)-3-oxa-7,9-diazabicyclo[3.3.1]nonan-9-y1)-1-methyl-1H-pyrazolo[3,4-d]pyrimidin-3-y1)-2,6-difluoro-5-(trifluoromethyl)phenol] | 100 to 1000
17 | Cn1nc(-c2cc(C(F)(F)F)c(F)c(O)c2F)c2cnc(N3CC4(CCCNC4=O)C3)nc21 [Compound 18.12, 2-(3-(2,4-Difluoro-3-hydroxy-5-(trifluoromethyl)phenyl)-1-methyl-1H-pyrazolo[3,4-d]pyrimidin-6-yl)-2,6-diazaspiro[3.5]nonan-5-one] | 100 to 1000
18 | Cn1nc(-c2cc(C(F)(F)F)c(F)c(O)c2F)c2cnc(N3CCC34CCOCC4)nc21 [Compound 18.13, 2,6-Difluoro-3-(1-methy1-6-(7-oxa-1-azaspiro[3.5]nonan-1-y1)-1H-pyrazolo[3,4-d]pyrimidin-3-y1)-5-(trifluoromethyl)phenol] | < 100
19 | Cn1nc(-c2cc(C(F)(F)F)c(F)c(O)c2F)c2cnc(N3CCC(CO)CC3)nc21 [Compound 18.14, 2,6-Difluoro-3-(6-(4-(hydroxymethyl)piperidin-1-y1)-1-methyl-1H-pyrazolo[3,4-d]pyrimidin-3-y1)-5-(trifluoromethyl)phenol] | < 100
20 | Cn1nc(-c2cc(C(F)(F)F)c(F)c(O)c2F)c2cnc(N3CCC4(CC3)CC(=O)N4)nc21 [Compound 18.16, 7-(3-(2,4-Difluoro-3-hydroxy-5-(trifluoromethyl)phenyl)-1-methyl-1H-pyrazolo[3,4-d]pyrimidin-6-yl)-1,7-diazaspiro[3.5]nonan-2-one] | < 100
21 | CCN1CCN(c2ncc3c(-c4cc(C(F)(F)F)c(F)c(O)c4F)nn(C)c3n2)CC1=O [Compound 18.19, 4-(3-(2,4-Difluoro-3-hydroxy-5-(trifluoromethyl)phenyl)-1-methyl-1H-pyrazolo[3,4-d]pyrimidin-6-yl)-1-ethylpiperazin-2-one] | 100 to 1000
22 | COCC1(N(C)c2ncc3c(-c4cc(C(F)(F)F)c(F)c(O)c4F)nn(C)c3n2)CCC1 [Compound 18.20, 2,6-Difluoro-3-(6-((1-(methoxymethyl)cyclobutyl)(methy 1)amino)-1-methy1-1H-pyrazolo[3,4-d]pyrimidin-3-y1)-5-(trifluoromethyl)phenol] | < 100
23 | Cn1nc(-c2cc(C(F)(F)F)c(F)c(O)c2F)c2cnc(N3CCC4(CC3)CNC4=O)nc21 [Compound 18.25, 7-(3-(2,4-Difluoro-3-hydroxy-5-(trifluoromethyl)phenyl)-1-methyl-1H-pyrazolo[3,4-d]pyrimidin-6-yl)-2,7-diazaspiro[3.5]nonan-1-one] | < 100
24 | Cn1nc(-c2cc(C(F)(F)F)c(F)c(O)c2F)c2cnc(N3CCC4(CCCC(=O)N4)CC3)nc21 [Compound 18.26, 9-(3-(2,4-Difluoro-3-hydroxy-5-(trifluoromethyl)phenyl)-1-methyl-1H-pyrazolo[3,4-d]pyrimidin-6-yl)-1,9-diazaspiro[5.5]undecan-2-one] | < 100
25 | CC(C)C(=O)NC1CCN(c2ncc3c(-c4cc(C(F)(F)F)c(F)c(O)c4F)nn(C)c3n2)CC1 [Compound 18.27, N-(1-(3-(2,4-Difluoro-3-hydroxy-5-(trifluoromethyl)phenyl)-1-methyl-1H-pyrazolo[3,4-d]pyrimidin-6-y1)piperidin-4-yl)isobutyramide] | < 100
26 | CC(=O)N(C)C1CCN(c2ncc3c(-c4cc(C(F)(F)F)c(F)c(O)c4F)nn(C)c3n2)CC1 [Compound 18.28, N-(1-(3-(2,4-Difluoro-3-hydroxy-5-(trifluoromethyl)phenyl)-1-methyl-1H-pyrazolo[3,4-d]pyrimidin-6-yl)piperidin-4-y1)-N-methylacetamide] | < 100
27 | CNC1CCN(c2ncc3c(-c4cc(C(F)(F)F)c(F)c(O)c4F)nn(C)c3n2)CC1 [Compound 18.29, 2,6-Difluoro-3-(1-methyl-6-(4-(methylamino)piperidin-1-yl)-1H-pyrazolo[3,4-d]pyrimidin-3-y1)-5-(trifluoromethyl)phenol] | 100 to 1000
28 | CN(C)C1CCN(c2ncc3c(-c4cc(C(F)(F)F)c(F)c(O)c4F)nn(C)c3n2)CC1 [Compound 18.31, 3-(6-(4-(Dimethylamino)piperidin-1-y1)-1-methyl-1H-pyrazolo[3,4-d]pyrimidin-3-y1)-2,6-difluoro-5-(trifluoromethyl)phenol] | 100 to 1000
